Measurements published in patent US6083959A, “Quinoline derivatives, processes for their preparation and their use as medicaments” (Fujisawa Pharmaceutical Co., Ltd., priority 1996, dated 2000).
Structures can show the parent of a compound that is named as a salt.

biological target: T1, Bradykinin Receptor (Cavia porcellus, UniProt O70526); test: ^3 H-Bradykinin Receptor Binding (crude guinea pig ileum membrane); details: ^3 H-Bradykinin 0.06 nM, room temperature, 60 minutes, read-out: Inhibition of ^3 H-Bradykinin binding IC50
T1 construct: The ileum was removed and homogenized in buffer; from tissue; host or cells: guinea pig (male Hartley strain) ileum, crude membrane
T1 sequence (O70526 1-372): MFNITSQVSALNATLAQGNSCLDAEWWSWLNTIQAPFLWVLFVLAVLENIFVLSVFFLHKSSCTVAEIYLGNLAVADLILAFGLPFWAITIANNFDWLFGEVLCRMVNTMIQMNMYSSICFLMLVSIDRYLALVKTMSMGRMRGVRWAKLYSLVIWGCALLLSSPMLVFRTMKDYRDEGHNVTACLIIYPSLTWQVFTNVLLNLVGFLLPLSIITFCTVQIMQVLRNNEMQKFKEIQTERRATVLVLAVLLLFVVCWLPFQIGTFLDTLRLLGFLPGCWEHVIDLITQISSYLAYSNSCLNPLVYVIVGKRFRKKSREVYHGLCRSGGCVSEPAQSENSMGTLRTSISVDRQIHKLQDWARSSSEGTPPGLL
Protocol: ^3 H-Bradykinin Receptor Binding
(a) Crude Ileum Membrane Preparation
Male Hartly strain guinea pigs were sacrificed by decapitation. The ileum was removed and homogenized in buffer (50 mM 2-[[tris(hydroxymethyl)methyl]amino]-1-ethanesulfonic acid (TES), 1 mM 1,10-phenanthroline pH 6.8). The homogenate was centrifuged (1000×g,20 minutes) to remove tissue clumps and the supernatant was centrifuges (100,000×g, 60 minutes) to yield a pellet. The pellet was resuspended in buffer (50 mM TES, 1 mM 1,10-phenanthroline, 140 mg/l bacitracin, 1 mM dithiothreiol, 0.1% bovine serum albumin pH 6.8) and homogenized with a glass-teflon homogenizer to yield suspension which was referred to as crude membrane suspension. The obtained membrane suspension was stored at -80° C. until use.
(b) ^3 H-Bradykinin Binding to the Membrane
The frozen crude membrane suspension was thawed. In binding assays, ^3 H-Bradykinin (0.06 nM) and drug were incubated with 50 μl of the membrane suspension at room temperature for 60 minutes in a final volume of 250 μl. Separation of receptor-bound from free ^3 H-Bradykinin is achieved by immediate filtration under vacuum and washed three times with 5 ml of ice-cold buffer (50 mM Tris-HCl pH 7.5). Non-specific binding was defined as binding in the presence of 0.1 μM Bradykinin. The radioactivity retained on rinsed filters was determined by a liquid-scintillation counter.

IC50 [nM]	SMILES
9.1	Cc1cc(-n2cncn2)c2cccc(OCc3c(Cl)ccc(N(C)C(=O)CNC(=O)C=Cc4ccc(C(=O)N(C)C)cc4)c3Cl)c2n1 [12 (dihydrochloride), 8-[2,6-Dichloro-3-[N-methyl-N-[4-(dimethylcarbamoyl)cinnamoylglycyl]amino]benzyloxy]-2-methyl-4-(1,2,4-triazol-1-yl)quinoline]
3.3	Cc1cc(-n2cccn2)c2cccc(OCc3c(Cl)ccc(N(C)C(=O)CNC(=O)C=Cc4ccc(C(=O)N(C)C)cc4)c3Cl)c2n1 [11-(4) (dihydrochloride), 8-[2,6-Dichloro-3-[N-methyl-N-[4-(dimethylcarbamoyl)cinnamoylglycyl]amino]benzyloxy]-2-methyl-4-(pyrazol-1-yl)quinoline]
6.6	Cc1cc(-n2ccnc2)c2cccc(OCc3c(Cl)ccc(N(C)C(=O)CNC(=O)Nc4cccc(C(=O)Nc5ccncc5)c4)c3Cl)c2n1 [3 (trihydrochloride), 8-[2,6-dichloro-3-[N-methyl-N-[N'-[3-[N-(4-pyridyl)carbamoyl]phenyl]ureidoacetyl]amino]benzyloxy]-4-(imidazol-1-yl)-2-methylquinoline]
4.5	Cc1cc(-n2ccnc2)c2cccc(OCc3c(Cl)ccc(N(C)C(=O)CNC(=O)C=Cc4ccc(C(=O)NCc5ccccn5)cc4)c3Cl)c2n1 [2-(3) (trihydrochloride), 8-[2,6-Dichloro-3-[N-methyl-N-[4-[N-(2-pyridylmethyl)carbamoyl]cinnamoylglycyl]amino]benzyloxy]-4-(imidazol-1-yl)-2-methylquinoline]
3.9	CCOC(=O)c1ccc(C=CC(=O)NCC(=O)N(C)c2ccc(Cl)c(COc3cccc4c(-n5ccnc5)cc(C)nc34)c2Cl)cc1 [17-(1), 8-[2,6-Dichloro-3-[N-(4-ethoxycarbonylcinnamoylglycyl)-N-methylamino]benzyloxy]-4-(imidazol-1-yl)-2-methylquinoline]
